Results reported in PubChem BioAssay AID274 (DTP/NCI, 2004).
Where “and” joins values, the source holds several entries; their conditions need not be identical. Equal values may be shown once. Inconclusive results and toxic doses are left out. How the source made its calls: active means survival T/C of 150% or more; inactive means T/C below 125% in these data.

Test system: BDF1 mice, Lewis lung carcinoma iv, survival T/C
Experiment: NCI In Vivo Anticancer Drug Screen. Data for tumor model Lewis Lung Carcinoma (intravenous) in B6D2F1 (BDF1) mice
Settings: endpoint: median survival time, higher = longer survival
Description: The antitumor activity of compounds was measured in mice bearing transplantable tumors. Survival or tumor size were measured and the results are expressed as the measurement made in the treated group (T) divided by the measurement made in the vehicle treated control group (C). The tumor model used in this assay is Lewis Lung Carcinoma (intravenous) in B6D2F1 (BDF1) mice

[1] = dose: 0.75 mg/kg/injection, schedule: Q01DX009 (ip), vehicle: Klucel (hydroxypropylcellulose) (HPC)
[2] = dose: 1.5 mg/kg/injection, schedule: Q01DX009 (ip), vehicle: Klucel (hydroxypropylcellulose) (HPC)
[3] = dose: 25.0 mg/kg/injection, schedule: Q01DX009 (ip), vehicle: saline with Tween-80
[4] = dose: 50.0 mg/kg/injection, schedule: Q01DX009 (ip), vehicle: saline with Tween-80
[5] = dose: 100.0 mg/kg/injection, schedule: Q01DX009 (ip), vehicle: saline with Tween-80
[6] = dose: 3.12 mg/kg/injection, schedule: Q01DX009 (ip), vehicle: saline with Tween-80
[7] = dose: 6.25 mg/kg/injection, schedule: Q01DX009 (ip), vehicle: saline with Tween-80
[8] = dose: 12.5 mg/kg/injection, schedule: Q01DX009 (ip), vehicle: saline with Tween-80

Measured: T/C

CN(Cc1cnc2nc(N)nc(N)c2n1)c1ccc(C(=O)N[C@@H](CCC(=O)O)C(=O)O)cc1
inactive: dose: 0.23 mg/kg/injection, schedule: Q01DX021 (ip), vehicle: sodium bicarbonate 105 % of control | dose: 0.25 mg/kg/injection, schedule: Q01DX009 (ip), vehicle: sodium bicarbonate 103 % of control | dose: 0.39 mg/kg/injection, schedule: Q01DX009 (ip), vehicle: sodium bicarbonate 102 % of control | dose: 0.39 mg/kg/injection, schedule: Q01DX021 (ip), vehicle: sodium bicarbonate 102 % of control | dose: 0.5 mg/kg/injection, schedule: Q01DX009 (ip), vehicle: sodium bicarbonate 121 % of control | dose: 0.65 mg/kg/injection, schedule: Q01DX009 (ip), vehicle: sodium bicarbonate 100 % of control | dose: 0.65 mg/kg/injection, schedule: Q01DX021 (ip), vehicle: sodium bicarbonate 105 % of control | dose: 1.0 mg/kg/injection, schedule: Q01DX009 (ip), vehicle: sodium bicarbonate 107 % of control and 114 % of control and 118 % of control | dose: 1.08 mg/kg/injection, schedule: Q01DX009 (ip), vehicle: sodium bicarbonate 95 % of control | dose: 1.08 mg/kg/injection, schedule: Q01DX021 (ip), vehicle: sodium bicarbonate 114 % of control | dose: 1.8 mg/kg/injection, schedule: Q01DX009 (ip), vehicle: sodium bicarbonate 110 % of control | dose: 2.0 mg/kg/injection, schedule: Q01DX009 (ip), vehicle: sodium bicarbonate 96 % of control and 114 % of control | dose: 2.5 mg/kg/injection, schedule: Q04DX003 (ip), vehicle: sodium bicarbonate 90 % of control | dose: 3.0 mg/kg/injection, schedule: Q01DX009 (ip), vehicle: sodium bicarbonate 114 % of control | dose: 3.9 mg/kg/injection, schedule: Q04DX006 (ip), vehicle: sodium bicarbonate 96 % of control | dose: 4.0 mg/kg/injection, schedule: Q01DX009 (ip), vehicle: sodium bicarbonate 96 % of control | dose: 5.0 mg/kg/injection, schedule: Q04DX003 (ip), vehicle: sodium bicarbonate 103 % of control | dose: 6.5 mg/kg/injection, schedule: Q04DX003 (ip), vehicle: sodium bicarbonate 100 % of control and 103 % of control | dose: 6.5 mg/kg/injection, schedule: Q04DX003 (iv), vehicle: sodium bicarbonate 107 % of control | dose: 6.5 mg/kg/injection, schedule: Q04DX006 (ip), vehicle: sodium bicarbonate 109 % of control | dose: 10.0 mg/kg/injection, schedule: Q04DX003 (ip), vehicle: sodium bicarbonate 108 % of control | dose: 10.8 mg/kg/injection, schedule: Q04DX003 (ip), vehicle: sodium bicarbonate 119 % of control and 123 % of control | dose: 10.8 mg/kg/injection, schedule: Q04DX003 (iv), vehicle: sodium bicarbonate 116 % of control | dose: 10.8 mg/kg/injection, schedule: Q04DX006 (ip), vehicle: sodium bicarbonate 120 % of control | dose: 18.0 mg/kg/injection, schedule: Q04DX003 (iv), vehicle: sodium bicarbonate 120 % of control | dose: 20.0 mg/kg/injection, schedule: Q04DX003 (ip), vehicle: sodium bicarbonate 123 % of control | dose: 30.0 mg/kg/injection, schedule: Q04DX006 (ip), vehicle: sodium bicarbonate 95 % of control

O=C1C=CC(=O)N1c1ccc(Cl)cc1
inactive: dose: 1.25 mg/kg/injection, schedule: Q01DX009 (ip), vehicle: Klucel (hydroxypropylcellulose) (HPC) 100 % of control | dose: 2.5 mg/kg/injection, schedule: Q01DX009 (ip), vehicle: Klucel (hydroxypropylcellulose) (HPC) 95 % of control | dose: 5.0 mg/kg/injection, schedule: Q01DX009 (ip), vehicle: Klucel (hydroxypropylcellulose) (HPC) 96 % of control | dose: 10.0 mg/kg/injection, schedule: Q01DX009 (ip), vehicle: Klucel (hydroxypropylcellulose) (HPC) 107 % of control

CC(=O)O[C@@H]1CO[C@H]2O[C@H]3[C@@H](C(C=O)=C[C@H](O)[C@@H]4C5=C(C(C)C)CC[C@]5(C)CC[C@@]34C)[C@@]2(O)C1=O
inactive: [1] 96 % of control | [2] 107 % of control

O=C(NO)c1ccc(O)c(O)c1
inactive: dose: 25.0 mg/kg/injection, schedule: Q01DX009 (ip), vehicle: water 100 % of control | dose: 50.0 mg/kg/injection, schedule: Q01DX009 (ip), vehicle: water 100 % of control | dose: 100.0 mg/kg/injection, schedule: Q01DX009 (ip), vehicle: water 100 % of control | dose: 200.0 mg/kg/injection, schedule: Q01DX009 (ip), vehicle: water 108 % of control | dose: 300.0 mg/kg/injection, schedule: Q01DX009 (ip), vehicle: suspension in saline 117 % of control | dose: 400.0 mg/kg/injection, schedule: Q01DX009 (ip), vehicle: suspension in saline 114 % of control | dose: 500.0 mg/kg/injection, schedule: Q01DX009 (ip), vehicle: suspension in saline 122 % of control

CC(=O)N(C)c1ccc(Nc2cc(C)[nH]c3ccc4ncnc4c23)cc1
inactive: dose: 6.25 mg/kg/injection, schedule: Q01DX009 (ip), vehicle: saline 97 % of control | dose: 12.5 mg/kg/injection, schedule: Q01DX009 (ip), vehicle: saline 93 % of control | dose: 25.0 mg/kg/injection, schedule: Q01DX009 (ip), vehicle: saline 93 % of control | dose: 50.0 mg/kg/injection, schedule: Q01DX009 (ip), vehicle: saline 117 % of control

CCCCCCCCCCCCCCCC[N+]1(C)CCN(SN2CC[N+](C)(CCCCCCCCCCCCCCCC)CC2)CC1
inactive: [3] 109 % of control | [4] 100 % of control | [5] 104 % of control

O=C1c2ccccc2C(=O)c2c(NCCNCCO)ccc(O)c21
inactive: dose: 2.5 mg/kg/injection, schedule: Q01DX009 (ip), vehicle: suspension in saline 92 % of control | dose: 5.0 mg/kg/injection, schedule: Q01DX009 (ip), vehicle: suspension in saline 88 % of control | dose: 10.0 mg/kg/injection, schedule: Q01DX009 (ip), vehicle: suspension in saline 88 % of control | dose: 20.0 mg/kg/injection, schedule: Q01DX009 (ip), vehicle: suspension in saline 97 % of control | dose: 40.0 mg/kg/injection, schedule: Q01DX009 (ip), vehicle: suspension in saline 103 % of control | dose: 80.0 mg/kg/injection, schedule: Q01DX009 (ip), vehicle: suspension in saline 102 % of control

CCc1nc(N)nc(N)c1-c1ccc(Cl)c([N+](=O)[O-])c1
inactive: dose: 1.56 mg/kg/injection, schedule: Q01DX009 (ip), vehicle: saline with Tween-80 100 % of control | [6] 98 % of control | [7] 111 % of control | [8] 111 % of control

C=C1C(=O)C2=CC1CCC(=O)C1(C)CCC(OC(C)=O)C(C)(C)C1CC2O (configuration not stated)
inactive: dose: 3.75 mg/kg/injection, schedule: Q01DX009 (ip), vehicle: Klucel (hydroxypropylcellulose) (HPC) 105 % of control | dose: 7.5 mg/kg/injection, schedule: Q01DX009 (ip), vehicle: Klucel (hydroxypropylcellulose) (HPC) 100 % of control | dose: 15.0 mg/kg/injection, schedule: Q01DX009 (ip), vehicle: Klucel (hydroxypropylcellulose) (HPC) 100 % of control | dose: 30.0 mg/kg/injection, schedule: Q01DX009 (ip), vehicle: Klucel (hydroxypropylcellulose) (HPC) 104 % of control | dose: 60.0 mg/kg/injection, schedule: Q01DX009 (ip), vehicle: Klucel (hydroxypropylcellulose) (HPC) 93 % of control

N#Cc1nc(C#N)c(Sc2ccccc2)c(Sc2ccccc2)c1Sc1ccccc1
inactive: [6] 95 % of control | [7] 94 % of control | [8] 97 % of control | [3] 95 % of control | [4] 98 % of control | [5] 98 % of control

CC(=O)OCC1OC(OC(C)=O)C(NC(=O)N(CCCl)N=O)C(OC(C)=O)C1OC(C)=O (configuration not stated)
inactive: [1] 105 % of control | [2] 105 % of control | dose: 3.0 mg/kg/injection, schedule: Q01DX009 (ip), vehicle: Klucel (hydroxypropylcellulose) (HPC) 110 % of control | dose: 6.0 mg/kg/injection, schedule: Q01DX009 (ip), vehicle: Klucel (hydroxypropylcellulose) (HPC) 110 % of control
